Measured values: ChEMBL document CHEMBL1909046, “DrugMatrix in vitro pharmacology data”

Key:
[1] = molecular target: T1, Alpha-1A adrenergic receptor (Rattus norvegicus, UniProt P43140); experiment: DRUGMATRIX: Alpha-1A adrenergic receptor radioligand binding (ligand: prazosin); format: cell membranes, Wistar, Submaxillary gland, Membrane; conditions: Not Active = under 50% inhibition at 10 µM
T1 sequence (P43140 whole entry): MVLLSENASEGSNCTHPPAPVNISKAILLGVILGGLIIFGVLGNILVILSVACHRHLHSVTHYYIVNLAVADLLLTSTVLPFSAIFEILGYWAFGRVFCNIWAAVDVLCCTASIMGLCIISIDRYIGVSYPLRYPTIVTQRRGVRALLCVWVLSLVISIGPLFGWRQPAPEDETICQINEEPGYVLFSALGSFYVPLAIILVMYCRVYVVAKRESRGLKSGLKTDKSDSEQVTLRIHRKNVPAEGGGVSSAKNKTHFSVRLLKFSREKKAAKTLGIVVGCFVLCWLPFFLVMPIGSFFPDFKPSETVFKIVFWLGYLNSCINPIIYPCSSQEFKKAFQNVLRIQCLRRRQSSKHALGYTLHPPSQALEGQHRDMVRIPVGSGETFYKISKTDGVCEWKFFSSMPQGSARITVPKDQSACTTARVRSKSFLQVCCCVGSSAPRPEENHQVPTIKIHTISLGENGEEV

[2] = DRUGMATRIX: Atrial Natriuretic Factor (ANF) radioligand binding (ligand: [125I] ANF (rat)); format: cell membranes, Cavia porcellus, Dunkin-Hartley, Adrenal gland, Membrane; conditions: Not Active = under 50% inhibition at 10 µM
[3] = molecular target: T2, C-C chemokine receptor type 4 (Homo sapiens, UniProt P51679); format: cell membranes, Membrane; conditions: chem-1; note: in other assays of this panel Not Active means under 50% inhibition at 10 µM
T2 sequence (P51679 whole entry): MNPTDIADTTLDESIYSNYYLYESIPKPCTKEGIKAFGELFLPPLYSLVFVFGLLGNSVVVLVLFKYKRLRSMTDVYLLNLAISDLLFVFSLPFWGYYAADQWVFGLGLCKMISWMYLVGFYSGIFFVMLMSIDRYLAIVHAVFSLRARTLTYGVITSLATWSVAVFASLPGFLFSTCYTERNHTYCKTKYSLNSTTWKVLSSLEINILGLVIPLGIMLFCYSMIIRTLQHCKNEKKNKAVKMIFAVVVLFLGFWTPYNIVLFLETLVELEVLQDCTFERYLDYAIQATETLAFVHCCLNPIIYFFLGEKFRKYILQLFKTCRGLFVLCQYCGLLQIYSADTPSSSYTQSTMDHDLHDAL

D(4) dopamine receptor = molecular target: T3, D(4) dopamine receptor (Homo sapiens, UniProt P21917); experiment: DRUGMATRIX: Dopamine D4.2 radioligand binding (ligand: [3H] Spiperone); format: cell membranes, CHO-K1, Membrane; conditions: cho-k1; Not Active = under 50% inhibition at 10 µM
T3 sequence (P21917 whole entry): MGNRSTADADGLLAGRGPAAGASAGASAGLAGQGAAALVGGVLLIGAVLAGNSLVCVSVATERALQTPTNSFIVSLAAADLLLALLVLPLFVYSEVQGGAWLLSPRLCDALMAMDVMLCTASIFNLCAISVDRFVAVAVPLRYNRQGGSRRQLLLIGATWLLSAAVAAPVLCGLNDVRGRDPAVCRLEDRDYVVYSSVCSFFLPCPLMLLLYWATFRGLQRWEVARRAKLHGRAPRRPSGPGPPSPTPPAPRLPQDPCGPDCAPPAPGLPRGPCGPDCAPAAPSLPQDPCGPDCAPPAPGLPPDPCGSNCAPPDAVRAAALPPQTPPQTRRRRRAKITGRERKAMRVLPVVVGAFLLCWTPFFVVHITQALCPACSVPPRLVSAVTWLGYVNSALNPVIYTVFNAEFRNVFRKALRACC

[4] = molecular target: T4, Neuropeptide Y receptor type 1 (Homo sapiens, UniProt P25929); format: cell membranes, Membrane; conditions: sk-n-mc; note: in other assays of this panel Not Active means under 50% inhibition at 10 µM
T4 sequence (P25929 whole entry): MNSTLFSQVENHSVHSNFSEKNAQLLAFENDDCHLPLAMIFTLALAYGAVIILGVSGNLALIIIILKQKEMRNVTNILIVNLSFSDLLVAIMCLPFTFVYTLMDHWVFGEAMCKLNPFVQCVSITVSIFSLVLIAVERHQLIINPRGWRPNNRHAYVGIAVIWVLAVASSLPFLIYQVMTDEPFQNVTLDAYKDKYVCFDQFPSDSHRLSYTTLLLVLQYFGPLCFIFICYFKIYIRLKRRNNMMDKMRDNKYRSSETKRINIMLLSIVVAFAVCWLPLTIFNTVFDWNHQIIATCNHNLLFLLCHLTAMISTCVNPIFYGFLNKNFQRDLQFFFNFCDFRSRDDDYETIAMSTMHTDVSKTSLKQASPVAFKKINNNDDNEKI

[5] = molecular target: Mitogen-activated protein kinase 3 (Homo sapiens, UniProt P27361); experiment: DRUGMATRIX: Protein Serine/Threonine Kinase, ERK1 enzyme inhibition (substrate: Myelin Basic Protein); design: species or system Escherichia coli; conditions: Not Active = under 50% inhibition at 10 µM
Sequence of Mitogen-activated protein kinase 3 (P27361 whole entry): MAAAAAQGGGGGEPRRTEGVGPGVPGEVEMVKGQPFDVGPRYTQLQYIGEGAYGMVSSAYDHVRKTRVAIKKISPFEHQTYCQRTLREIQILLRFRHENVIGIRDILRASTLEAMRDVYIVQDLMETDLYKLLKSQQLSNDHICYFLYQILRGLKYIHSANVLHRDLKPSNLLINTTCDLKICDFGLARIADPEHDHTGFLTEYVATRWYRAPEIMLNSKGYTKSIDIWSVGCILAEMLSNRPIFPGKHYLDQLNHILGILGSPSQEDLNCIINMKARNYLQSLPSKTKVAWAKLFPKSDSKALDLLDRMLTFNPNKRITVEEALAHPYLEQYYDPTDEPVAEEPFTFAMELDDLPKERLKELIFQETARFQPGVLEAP

[6] = molecular target: Mitogen-activated protein kinase 14 (Homo sapiens, UniProt Q16539); design: species or system Escherichia coli;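 note: inhibition of p38alpha enzyme activity in a biochemical kinase assay, with myelin basic protein serving as substrate; in other assays of this panel Not Active means under 50% inhibition at 10 µM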
Sequence of Mitogen-activated protein kinase 14 (Q16539 whole entry): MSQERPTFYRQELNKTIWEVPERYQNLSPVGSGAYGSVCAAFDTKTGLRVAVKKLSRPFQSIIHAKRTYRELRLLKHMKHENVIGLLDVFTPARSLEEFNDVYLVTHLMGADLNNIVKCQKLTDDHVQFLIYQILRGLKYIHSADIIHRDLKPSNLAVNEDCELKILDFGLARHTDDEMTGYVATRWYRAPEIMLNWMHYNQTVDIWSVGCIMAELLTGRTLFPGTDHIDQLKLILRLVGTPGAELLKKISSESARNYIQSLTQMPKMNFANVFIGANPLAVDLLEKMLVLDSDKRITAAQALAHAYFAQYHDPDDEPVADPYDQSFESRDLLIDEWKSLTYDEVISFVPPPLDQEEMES

Cytochrome P450 2D6 = Cytochrome P450 2D6 (Homo sapiens, UniProt P10635); conditions: bti-tn-5b1-4; note: in other assays of this panel Not Active means under 50% inhibition at 10 µM
Sequence of Cytochrome P450 2D6 (P10635 whole entry): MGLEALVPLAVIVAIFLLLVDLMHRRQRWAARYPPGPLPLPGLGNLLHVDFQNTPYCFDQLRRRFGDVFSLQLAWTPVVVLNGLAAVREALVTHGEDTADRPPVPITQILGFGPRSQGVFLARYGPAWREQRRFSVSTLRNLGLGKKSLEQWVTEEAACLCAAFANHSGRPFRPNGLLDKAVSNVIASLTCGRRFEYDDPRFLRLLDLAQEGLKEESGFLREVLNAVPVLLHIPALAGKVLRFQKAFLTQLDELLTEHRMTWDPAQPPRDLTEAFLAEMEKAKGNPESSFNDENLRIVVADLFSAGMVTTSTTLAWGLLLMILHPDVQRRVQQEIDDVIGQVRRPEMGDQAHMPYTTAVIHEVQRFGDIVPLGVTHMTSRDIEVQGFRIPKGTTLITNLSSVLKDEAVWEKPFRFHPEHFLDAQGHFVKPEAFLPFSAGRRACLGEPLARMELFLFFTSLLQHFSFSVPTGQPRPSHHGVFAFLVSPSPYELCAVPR

CC[C@H](C)C(=O)O[C@H]1C[C@@H](C)C=C2C=C[C@H](C)[C@H](CC[C@@H]3C[C@@H](O)CC(=O)O3)[C@H]21 [LOVASTATIN]
Not Active: IC50 [1] | IC50 [2] | Ki [2] | IC50 [3] | IC50 (D(4) dopamine receptor) | IC50 [4] | IC50 [5] | IC50 [6] | IC50 (Cytochrome P450 2D6) | Ki (Cytochrome P450 2D6)

CC(C(=O)O)c1ccc(CC2CCCC2=O)cc1 (stereo not drawn) [LOXOPROFEN]
Not Active: IC50 [1] | IC50 [2] | Ki [2] | IC50 [3] | IC50 (D(4) dopamine receptor) | IC50 [4] | IC50 [5] | IC50 [6] | IC50 (Cytochrome P450 2D6) | Ki (Cytochrome P450 2D6)

Cc1cccc(Nc2ccccc2C(=O)O)c1C [MEFENAMIC ACID]
Not Active: IC50 [1] | IC50 [2] | Ki [2] | IC50 [3] | IC50 (D(4) dopamine receptor) | IC50 [4] | IC50 [5] | IC50 [6] | IC50 (Cytochrome P450 2D6) | Ki (Cytochrome P450 2D6)

CC(=O)O[C@]1(C(C)=O)CC[C@H]2[C@@H]3C=C(C)C4=CC(=O)CC[C@]4(C)[C@H]3CC[C@@]21C [MEGESTROL ACETATE]
Not Active: IC50 [1] | IC50 [2] | Ki [2] | IC50 [3] | IC50 (D(4) dopamine receptor) | IC50 [4] | IC50 [5] | IC50 [6] | IC50 (Cytochrome P450 2D6) | Ki (Cytochrome P450 2D6)

COc1ccccc1OCC(O)COC(N)=O (stereo not drawn) [METHOCARBAMOL]
Not Active: IC50 [1] | IC50 [2] | Ki [2] | IC50 [3] | IC50 (D(4) dopamine receptor) | IC50 [4] | IC50 [5] | IC50 [6] | IC50 (Cytochrome P450 2D6) | Ki (Cytochrome P450 2D6)

CN(Cc1cnc2nc(N)nc(N)c2n1)c1ccc(C(=O)N[C@@H](CCC(=O)O)C(=O)O)cc1 [METHOTREXATE]
Not Active: IC50 [1] | IC50 [2] | Ki [2] | IC50 [3] | IC50 (D(4) dopamine receptor) | IC50 [4] | IC50 [5] | IC50 [6] | IC50 (Cytochrome P450 2D6) | Ki (Cytochrome P450 2D6)

COC(=O)c1ccccc1O [METHYL SALICYLATE]
Not Active: IC50 [1] | IC50 [2] | Ki [2] | IC50 [3] | IC50 (D(4) dopamine receptor) | IC50 [4] | IC50 [5] | IC50 [6] | IC50 (Cytochrome P450 2D6) | Ki (Cytochrome P450 2D6)

COc1ccc2cc(CCC(C)=O)ccc2c1 [NABUMETONE]
Not Active: IC50 [1] | IC50 [2] | Ki [2] | IC50 [3] | IC50 (D(4) dopamine receptor) | IC50 [4] | IC50 [5] | IC50 [6] | IC50 (Cytochrome P450 2D6) | Ki (Cytochrome P450 2D6)

O=C(O)c1cccnc1 [NIACIN]
Not Active: IC50 [1] | IC50 [2] | Ki [2] | IC50 [3] | IC50 (D(4) dopamine receptor) | IC50 [4] | IC50 [5] | IC50 [6] | IC50 (Cytochrome P450 2D6) | Ki (Cytochrome P450 2D6)

CNC(=C[N+](=O)[O-])NCCSCc1csc(CN(C)C)n1 [NIZATIDINE]
Not Active: IC50 [1] | IC50 [2] | Ki [2] | IC50 [3] | IC50 (D(4) dopamine receptor) | IC50 [4] | IC50 [5] | IC50 [6] | IC50 (Cytochrome P450 2D6) | Ki (Cytochrome P450 2D6)

C[C@]12C/C(=C/O)C(=O)C[C@@H]1CC[C@@H]1[C@@H]2CC[C@@]2(C)[C@H]1CC[C@]2(C)O [OXYMETHOLONE]
Not Active: IC50 [1] | IC50 [2] | Ki [2] | IC50 [3] | IC50 (D(4) dopamine receptor) | IC50 [4] | IC50 [5] | IC50 [6] | IC50 (Cytochrome P450 2D6) | Ki (Cytochrome P450 2D6)

CC(C)(CO)C(O)C(=O)NCCCO (stereo not drawn) [PANTHENOL]
Not Active: IC50 [1] | IC50 [2] | Ki [2] | IC50 [3] | IC50 (D(4) dopamine receptor) | IC50 [4] | IC50 [5] | IC50 [6] | IC50 (Cytochrome P450 2D6) | Ki (Cytochrome P450 2D6)

COc1ccc(Cc2nccc3cc(OC)c(OC)cc23)cc1OC [PAPAVERINE]
Not Active: IC50 [1] | IC50 [2] | Ki [2] | IC50 [3] | IC50 (D(4) dopamine receptor) | IC50 [4] | IC50 [5] | IC50 [6] | IC50 (Cytochrome P450 2D6) | Ki (Cytochrome P450 2D6)

CCCCC1C(=O)N(c2ccccc2)N(c2ccccc2)C1=O [PHENYLBUTAZONE]
Not Active: IC50 [1] | IC50 [2] | Ki [2] | IC50 [3] | IC50 (D(4) dopamine receptor) | IC50 [4] | IC50 [5] | IC50 [6] | IC50 (Cytochrome P450 2D6) | Ki (Cytochrome P450 2D6)

Cc1cccc(Nc2cc(Cl)nc(SCC(=O)O)n2)c1C [PIRINIXIC ACID]
Not Active: IC50 [1] | IC50 [2] | Ki [2] | IC50 [3] | IC50 (D(4) dopamine receptor) | IC50 [4] | IC50 [5] | IC50 [6] | IC50 (Cytochrome P450 2D6) | Ki (Cytochrome P450 2D6)

CC[C@H](C)C(=O)O[C@H]1C[C@H](O)C=C2C=C[C@H](C)[C@H](CC[C@@H](O)C[C@@H](O)CC(=O)O)[C@H]21 [PRAVASTATIN]
Not Active: IC50 [1] | IC50 [2] | Ki [2] | IC50 [3] | IC50 (D(4) dopamine receptor) | IC50 [4] | IC50 [5] | IC50 [6] | IC50 (Cytochrome P450 2D6) | Ki (Cytochrome P450 2D6)

CC(C)(Sc1cc(C(C)(C)C)c(O)c(C(C)(C)C)c1)Sc1cc(C(C)(C)C)c(O)c(C(C)(C)C)c1 [PROBUCOL]
Not Active: IC50 [1] | IC50 [2] | Ki [2] | IC50 [3] | IC50 (D(4) dopamine receptor) | IC50 [4] | IC50 [5] | IC50 [6] | IC50 (Cytochrome P450 2D6) | Ki (Cytochrome P450 2D6)

COBALT(II) ACETYLACETONATE
Not Active: IC50 [1] | Ki [1] | IC50 [2] | Ki [2] | IC50 [3] | Ki [3] | IC50 (D(4) dopamine receptor) | Ki (D(4) dopamine receptor) | IC50 [4] | Ki [4] | IC50 [5] | Ki [5] | IC50 [6] | Ki [6] | IC50 (Cytochrome P450 2D6) | Ki (Cytochrome P450 2D6)

INSULIN HUMAN
Not Active: IC50 [1] | Ki [1] | IC50 [2] | Ki [2] | IC50 [3] | Ki [3] | IC50 (D(4) dopamine receptor) | Ki (D(4) dopamine receptor) | IC50 [4] | Ki [4] | IC50 [5] | Ki [5] | IC50 [6] | Ki [6] | IC50 (Cytochrome P450 2D6) | Ki (Cytochrome P450 2D6)

POLYVINYL ALCOHOL
Not Active: IC50 [1] | Ki [1] | IC50 [2] | Ki [2] | IC50 [3] | Ki [3] | IC50 (D(4) dopamine receptor) | Ki (D(4) dopamine receptor) | IC50 [4] | Ki [4] | IC50 [5] | Ki [5] | IC50 [6] | Ki [6] | IC50 (Cytochrome P450 2D6) | Ki (Cytochrome P450 2D6)
